From US6194424A, “Arylacetamides and their use as medicaments” (Bayer Aktiengesellschaft, priority 1996, dated 2001)

System: ApoB-100-associated lipoproteins (HepG2 cells)
Experiment: Inhibition of the release of ApoB-100-associated lipoproteins from HepG2 liver cells (immunoassay of culture supernatant)
Type: cell-based
Conditions: Homo sapiens, substance concentration at which light absorption (450 nm) is inhibited by 50% vs solvent control, read-out: Apo B IC50
Description: The test for detection of the inhibition of the release of ApoB-100-associated lipoproteins from liver cells was carried out in vitro using cultured liver cells, preferably using cells of the human line HepG2. These cells are cultured under standard conditions in medium for the culture of eucaryotic cells, preferably in RPMI 1640 using 10% foetal calf serum. HepG2 cells synthesize and secrete into the culture supernatant ApoB-100-associated lipoprotein particles, which in principle are of similar construction to the VLDL or LDL particles which are to be, found in the plasma.
These particles can be detected using an immunoassay for human LDL. This immunoassay is carried out using antibodies which have been induced under standard conditions in the rabbit to human LDL. The anti-LDL antibodies (rabbit anti-LDL-Ab) were purified by affinity chromatography on an immunosorbent using human LDL. These purified rabbit anti-LDL-Ab are adsorbed onto the surface of plastic. […] The immune complex on the plastic surface is detected using monoclonal antibodies which have been induced against human LDL and purified according to standard conditions. […] After acidification of the reaction mixture with H2 SO4, the specific light absorption at 450 nm is determined, which is a measure of the amount of ApoB-100-associated particles which have been secreted into the culture supernatant by the HepG2 cells. […]

Cc1cc(C)c2c3ccccc3n(Cc3ccc([C@@H](C(=O)Nc4ccccc4)C4CCCC4)cc3)c2n1 [Example 2]
IC50: 8.2 nM

CCCCCNC(=O)[C@H](c1ccc(Cn2c3ccccc3c3c(C)cc(C)nc32)cc1)C1CCCC1 [Example 20]
IC50: 12.5 nM
